{
  "source": "patent US7405216B2",
  "about": "“Stable crystalline form of bifeprunox mesylate (7-[4-([1,1′-biphenyl]-3-ylmethyl)-1-piperazinyl]-2(3H)-benzoxazolone monomethanesulfonate)” (Solvay Pharmaceuticals, B.V., priority 2004, dated 2008)",
  "assay": "Stability of the crystalline polymorphic forms of bifeprunox mesylate",
  "assay_type": "physicochemical",
  "details": "for thermodynamic stability of the polymorphic form: solid crystalline form, found during further investigations, monomethanesulfonate",
  "data": [
    {"smiles": "O=c1[nH]c2cccc(N3CCN(Cc4cccc(-c5ccccc5)c4)CC3)c2o1", "note": "[polymorph α, 7-[4-([1,1′-biphenyl]-3-ylmethyl)-1-piperazinyl]-2(3H)-benzoxazolone monomethanesulfonate]", "values": [
      {"measurement": "conversion of the polymorphic form", "setting": "even at high atmospheric humidity or higher temperature", "value": "does not undergo conversion"},
      {"measurement": "thermodynamic stability of the polymorphic form", "value": "more thermodynamically stable"}
    ]},
    {"smiles": "O=c1[nH]c2cccc(N3CCN(Cc4cccc(-c5ccccc5)c4)CC3)c2o1", "note": "[polymorph δ, 7-[4-([1,1′-biphenyl]-3-ylmethyl)-1-piperazinyl]-2(3H)-benzoxazolone monomethanesulfonate]", "values": [
      {"measurement": "thermodynamic stability of the polymorphic form", "value": "metastable"}
    ]},
    {"smiles": "O=c1[nH]c2cccc(N3CCN(Cc4cccc(-c5ccccc5)c4)CC3)c2o1", "note": "[polymorph γ, 7-[4-([1,1′-biphenyl]-3-ylmethyl)-1-piperazinyl]-2(3H)-benzoxazolone monomethanesulfonate]", "values": [
      {"measurement": "thermodynamic stability of the polymorphic form", "value": "metastable"}
    ]}
  ]
}
